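Assay format: 96-well plates, 48-hour exposure. TGI is the concentration that stops growth completely.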 Where a SMILES comes first, the peptide text is derived from it. [ ]: non-standard residue; d: D form. The star is where a group is joined. Boc = CC(C)(C)OC(=O)*; Lac = C[CH](O)C(=O)O; OBn = c1ccc(CO*)cc1
What was measured:
Assay in all cases: growth of human tumour cells (NCI), 48 h
[1] = test system: SK-OV-3 ovarian
[2] = test system: OVCAR-3 ovarian
[3] = test system: 786-0 renal
[4] = test system: MALME-3M melanoma
[5] = test system: RPMI-8226 leukemia
[6] = test system: SN12C renal
[7] = test system: UACC-62 melanoma
[8] = test system: LOX IMVI melanoma
[9] = test system: HOP-62 NSCLC
[10] = test system: SW-620 colon
[11] = test system: MDA-N
[12] = test system: SF-539 CNS
[13] = test system: UACC-257 melanoma

NC(=O)c1ccc(C(=O)Nc2ccc([As](=O)(O)O)cc2)cc1
TGI [1]: > 100 µM | TGI [2]: > 100 µM | TGI [3]: > 100 µM | TGI [4]: > 100 µM | TGI [5]: > 100 µM | TGI [6]: > 100 µM | TGI [7]: > 100 µM | TGI [8]: > 100 µM | TGI [9]: > 100 µM | TGI [10]: > 100 µM | TGI [11]: > 100 µM

CC(OC(=O)C(Cc1ccccc1)NC(=O)C(Cc1ccccc1)NC(=O)OC(C)(C)C)C(=O)OCc1ccccc1 (stereo not drawn) (Boc-Phe-Phe-[Lac]-OBn; configuration not given here)
TGI [1]: > 100 µM | TGI [2]: > 100 µM | TGI [4]: > 100 µM | TGI [5]: > 100 µM | TGI [6]: > 100 µM | TGI [9]: > 100 µM | TGI [11]: > 100 µM

C/C(=C\CO)CC/C=C(\C)CNc1c(F)c(F)c(F)c(F)c1F
TGI [12]: 40.3 µM | TGI [13]: 47.4 µM | TGI [1]: > 100 µM | TGI [2]: 52.8 µM | TGI [3]: > 100 µM | TGI [4]: 57.2 µM | TGI [5]: 43.8 µM | TGI [6]: 41.2 µM | TGI [7]: 37.9 µM | TGI [8]: 80.8 µM | TGI [9]: 68 µM | TGI [10]: > 100 µM

CC(=O)c1cccc(Nc2nc3ccccc3c3occc23)c1
TGI [12]: 35.6 µM | TGI [13]: > 100 µM | TGI [1]: 40.8 µM | TGI [2]: > 100 µM | TGI [3]: 40 µM | TGI [4]: 53 µM | TGI [5]: > 100 µM | TGI [6]: 45.6 µM | TGI [8]: > 100 µM | TGI [9]: 34.6 µM

CC1OC(OC2C(OC(=O)[C@]34CCC(C)(C)C[C@H]3C3=CC[C@@H]5[C@@]6(C)CC[C@H](OC7OC(C(=O)O)C(O)C(O)C7O)C(C)(C)[C@@H]6CC[C@@]5(C)[C@]3(C)C[C@H]4O)OCC(O)C2O)C(O)C(O)C1OC1OCC(OC2OCC(O)C(O)C2O)C(O)C1O (stereo partly drawn)
TGI [13]: 23 µM | TGI [1]: 26.9 µM | TGI [2]: 30 µM | TGI [3]: 23.3 µM | TGI [4]: 25.3 µM | TGI [5]: 51.5 µM | TGI [6]: 5.68 µM | TGI [7]: 23.7 µM | TGI [8]: 24.2 µM | TGI [9]: 27.1 µM | TGI [10]: 23.1 µM

O=C1N(Cl)C(=O)C(c2ccc(Cl)cc2)(c2ccc(Cl)cc2)N1Cl
TGI [12]: > 100 µM | TGI [1]: > 100 µM | TGI [2]: > 100 µM | TGI [3]: > 100 µM | TGI [4]: > 100 µM | TGI [5]: > 100 µM | TGI [6]: > 100 µM | TGI [10]: > 100 µM

C=CC[C@H]1O[Si](C(C)(C)C)(C(C)(C)C)[C@H](C)[C@H]1C
TGI [12]: > 100 µM | TGI [13]: > 100 µM | TGI [1]: > 100 µM | TGI [2]: > 100 µM | TGI [3]: > 100 µM | TGI [4]: > 100 µM | TGI [6]: > 100 µM | TGI [7]: > 100 µM | TGI [8]: > 100 µM | TGI [9]: > 100 µM | TGI [10]: > 100 µM | TGI [11]: > 100 µM

Cc1ccc(Cc2n[nH]c(=O)[nH]2)cc1
TGI [12]: > 100 µM | TGI [13]: > 100 µM | TGI [1]: > 100 µM | TGI [2]: > 100 µM | TGI [3]: > 100 µM | TGI [4]: > 100 µM | TGI [6]: > 100 µM | TGI [7]: > 100 µM | TGI [8]: > 100 µM | TGI [9]: > 100 µM | TGI [10]: > 100 µM | TGI [11]: > 100 µM

S=C1NCCN1
TGI [12]: > 100 µM | TGI [13]: > 100 µM | TGI [1]: > 100 µM | TGI [2]: > 100 µM | TGI [3]: > 100 µM | TGI [4]: > 100 µM | TGI [5]: > 100 µM | TGI [6]: > 100 µM | TGI [7]: > 100 µM | TGI [8]: > 100 µM | TGI [9]: > 100 µM | TGI [10]: > 100 µM

O=C(NC(=S)Nc1ccc(Br)cc1)c1ccc2c(c1)Sc1ccccc1S2
TGI [12]: 53.5 µM | TGI [13]: 54.5 µM | TGI [1]: 33 µM | TGI [2]: 41.2 µM | TGI [3]: 30.6 µM | TGI [4]: 48.5 µM | TGI [6]: 38.4 µM | TGI [7]: 74.8 µM | TGI [8]: 61.4 µM | TGI [9]: 31 µM | TGI [10]: > 100 µM | TGI [11]: > 100 µM

CCOC(=O)c1c(SC(=O)c2ccc(C(C)(C)C)cc2)n(-c2ccccc2)c(=S)n(-c2ccccc2)c1=O
TGI [12]: > 100 µM | TGI [13]: > 100 µM | TGI [1]: > 100 µM | TGI [2]: > 100 µM | TGI [3]: > 100 µM | TGI [4]: > 100 µM | TGI [6]: > 100 µM | TGI [7]: > 100 µM | TGI [8]: > 100 µM | TGI [9]: > 100 µM | TGI [10]: > 100 µM | TGI [11]: > 100 µM

C[n+]1c2ccccc2c(NCC(=O)O)c2ccccc21
TGI [12]: > 100 µM | TGI [13]: > 100 µM | TGI [1]: > 100 µM | TGI [2]: > 100 µM | TGI [3]: > 100 µM | TGI [4]: > 100 µM | TGI [5]: > 100 µM | TGI [6]: > 100 µM | TGI [7]: > 100 µM | TGI [9]: > 100 µM | TGI [10]: > 100 µM

CC(=O)Nc1oc(C)c(C)c1S(=O)(=O)c1ccc(Cl)cc1
TGI [12]: > 100 µM | TGI [13]: > 100 µM | TGI [1]: > 100 µM | TGI [2]: > 100 µM | TGI [3]: > 100 µM | TGI [4]: > 100 µM | TGI [5]: > 100 µM | TGI [7]: > 100 µM | TGI [10]: > 100 µM

COc1cc2c(c(OC)c1O)-c1ccc(SC)c(=O)cc1C(NC(C)=O)CC2 (stereo not drawn)
TGI [13]: > 100 µM | TGI [1]: > 100 µM | TGI [2]: 0.0142 µM | TGI [3]: > 100 µM | TGI [4]: > 100 µM | TGI [5]: > 100 µM | TGI [6]: > 100 µM | TGI [7]: > 100 µM | TGI [8]: > 100 µM | TGI [9]: > 100 µM | TGI [10]: > 100 µM

COc1ccc2c(c1)CC[C@@H]1[C@@H]2CC[C@]2(C)C(=O)/C(=C/c3ccc(N(C)C)cc3)C[C@@H]12
TGI [12]: > 100 µM | TGI [1]: > 100 µM | TGI [2]: 54.6 µM | TGI [3]: 80.7 µM | TGI [4]: > 100 µM | TGI [5]: > 100 µM | TGI [7]: > 100 µM | TGI [9]: 44.8 µM | TGI [10]: > 100 µM

CN(C)c1ccc(C2CC(c3ccc4ccccc4c3O)=NN2)cc1 (stereo not drawn)
TGI [12]: 70.5 µM | TGI [13]: > 100 µM | TGI [1]: > 100 µM | TGI [2]: > 100 µM | TGI [3]: 59.7 µM | TGI [4]: > 100 µM | TGI [5]: > 100 µM | TGI [6]: > 100 µM | TGI [7]: > 100 µM | TGI [9]: > 100 µM | TGI [10]: > 100 µM | TGI [11]: > 100 µM

Cc1ccc(Nc2nc(=O)c3c4ccccc4n(C(=O)OC(C)(C)C)c3s2)cc1
TGI [12]: 79.8 µM | TGI [13]: > 100 µM | TGI [1]: > 100 µM | TGI [2]: 55.7 µM | TGI [3]: 38.5 µM | TGI [4]: 66.3 µM | TGI [5]: 48.7 µM | TGI [7]: 63.5 µM | TGI [8]: 46.7 µM | TGI [9]: 64.1 µM | TGI [10]: > 100 µM

O=C1NC(N/N=C/c2ccccc2)=N/C1=C\c1ccco1
TGI [13]: > 100 µM | TGI [1]: > 100 µM | TGI [2]: > 100 µM | TGI [3]: 55.6 µM | TGI [4]: > 100 µM | TGI [5]: > 100 µM | TGI [6]: > 100 µM | TGI [7]: > 100 µM | TGI [9]: 50.6 µM | TGI [10]: > 100 µM

N#Cc1cccc2c1Sc1ccccc1N2
TGI [12]: 64.2 µM | TGI [13]: > 100 µM | TGI [1]: > 100 µM | TGI [2]: > 100 µM | TGI [3]: 67.2 µM | TGI [4]: > 100 µM | TGI [5]: > 100 µM | TGI [6]: > 100 µM | TGI [7]: > 100 µM | TGI [8]: 36.5 µM | TGI [10]: > 100 µM

COc1ccc(/C=c2/sc3n(c2=O)C(c2ccccc2)C2(O)CCCCC2N=3)cc1 (stereo not drawn)
TGI [13]: > 12.5 µM | TGI [2]: > 12.5 µM | TGI [3]: > 12.5 µM | TGI [4]: > 12.5 µM | TGI [5]: > 12.5 µM | TGI [7]: > 12.5 µM | TGI [8]: > 12.5 µM | TGI [9]: > 12.5 µM | TGI [10]: > 12.5 µM | TGI [11]: > 12.5 µM

From PubChem BioAssay (NCI)
